From patent US4534978A, “Perfluorocycloamines” (The Green Cross Corporation, priority 1984, dated 1985)

How the values were obtained:
[1] = Acute Toxicity Test; format: in vivo, Wister-strain male rats; conditions: emulsion i.v., 100 ml/kg-body weight, observed one week, male rats
Experimental: The acute toxicity test on the preparations of the present invention was carried out using the preparations of the present invention shown in Table 4 which had been physiologically isotonized. The test animals used were Wister-strain male rats (weighing 100-120 g).
The results are such that with either emulsion containing perfluoro-N-cyclohexylprrolidine or perfluoro-N-(3'-methylcyclohexyl)pyrrolidine, thre was no death case at 100 ml/kg-body weight and thus their toxicity are very small.

[2] = Distribution of Perfluoro-compound in Organs; format: in vivo, Wister-strain male rats; conditions: 4 g/kg into the tail vein, male rats
Description: The content of perfluoro-N-cyclohexylpyrrolidine uptake in each organ 1, 2 and 4 weeks and 3 months after the administration are shown in Table 5.

SMILES	death cases [1]	toxicity [1]	adverse influence on the liver or spleen organ [2]	uptake by the reticulo-endothelial organs and disappearance [2]	Residual Rate of perfluoro-compound ([2]; Liver, 1 week after administration) [%]	Residual Rate of perfluoro-compound ([2]; Liver, 2 weeks after administration) [%]	Residual Rate of perfluoro-compound ([2]; Liver, 3 months after administration) [%]	Residual Rate of perfluoro-compound ([2]; Liver, 4 weeks after administration) [%]	Residual Rate of perfluoro-compound ([2]; Spleen, 1 week after administration) [%]	Residual Rate of perfluoro-compound ([2]; Spleen, 2 weeks after administration) [%]	Residual Rate of perfluoro-compound ([2]; Spleen, 3 months after administration) [%]	Residual Rate of perfluoro-compound ([2]; Spleen, 4 weeks after administration) [%]	half-life ([2]; rat, in vivo, iv, 4000 mg/kg, calculated) [days]
FC(F)(F)C1(F)C(F)(F)C(F)(F)C(F)(F)C(F)(N2C(F)(F)C(F)(F)C(F)(F)C2(F)F)C1(F)F (stereo not drawn) [Example 38, perfluoro-N-(3'-methylcyclohexyl)pyrrolidine]	no death case	very small	–	–	–	–	–	–	–	–	–	–	–
FC1(F)N(C2(F)C(F)(F)C(F)(F)C(F)(F)C(F)(F)C2(F)F)C(F)(F)C(F)(F)C1(F)F [Example 1, perfluoro-N-cyclohexylpyrrolidine]	no death case	very small	no evidence of adverse influence on the liver or spleen organ	taken up in greater amounts by the reticulo-endothelial organs shortly after the administration, but soon disappeared rapidly	21.23	13.63	0.24	4.98	12.33	10.49	0.51	8.52	16
